Data taken from patent US20030096264A1, “Multi-parameter high throughput screening assays (MPHTS)” (Psychiatric Genomics, Inc., priority 2001, published 2003).

System: stem cells isolated from rat cortex, differentiated with CNTF (astrocyte cultures)
Assay: Expression profile of CNTF-differentiated rat cortex stem cells treated with VIP
Format: cell-based
Conditions: 5 μM VIP, one day
Procedure: VIP signature genes. Similar experiments were also performed in which cells were treated with vasoactive intestinal polypeptide (VIP), another drug useful for treating neuropsychiatric disorders. In more detail, stem cells were isolated and propagated from rat cortex. At passage 1, they were treated with 10 ng/ml ciliary neurotrophic factor (CNTF, available from R&D Systems, MN) for four days. 10 ng/ml of basic fibroblast growht factor (bFGF, R&D Systems, MN) was present in the medium on the first day of the differentiation regiment. […] Cells were then treated with 5 μM VIP (Sigma) for one day and harvested for expression profiling.
Signature genes were identified that changed expression when contacted with VIP compared to untreated cells. Each of these genes is listed below in Table 4, along with the measured expression ratio (ρ) and the GenBank Accession number for an exemplary cDNA sequence. The exemplary cDNA sequence for each gene is also provided here in the accompanying sequence listing. Accordingly, an appropriate sequence identifier is also specified in Table 4 for each listed gene.

vasoactive intestinal polypeptide [VIP]
expression ratio σ: Cdk-inhibitor p57Kip2 (vs untreated, U22399 SEQ ID NO: 163): −1.8 | expression ratio σ: Rat EGF like protein (AF112153 SEQ ID NO: 164): 3.8 | expression ratio σ: Rat Interferon inducdible protein 16 (AF164040 SEQ ID NO: 168): 1.8 | expression ratio σ: similar to erythrocyte protein band 7.2 (BC003789 SEQ ID NO: 166): 2.2 | expression ratio σ: rat Dahl salt resistant strain clone etb (U02094 SEQ ID NO: 169): 1.8 | expression ratio σ: Rat tyrosine phosphatase like protein IA-2a (U40682 SEQ ID NO: 167): 2.0 | expression ratio σ: Rat interferon induced mRNA (X61381 SEQ ID NO: 165): 2.3
